In PMC9699427 (Viruses, 2022):
Where two headings read alike, the source gives them in different places.

Tests used:
[1] = Cytotoxicity, MTT assay, PBMCs; format: cell-based; conditions: human, PBMC, seven days, read-out: CC50 (Mean ± SD)
[2] = Cytotoxicity, MTT assay, MT-4 cells; format: cell-based; conditions: human, three days, read-out: CC50 (Mean ± SD)
[3] = target: CYP2C9 (Homo sapiens, UniProt P11712); experiment: Cytochrome P450 inhibition, human liver microsomes, diclofenac
[4] = tested on: HIV-1IIIB chronically infected H9 cells; experiment: HIV-1 replication in chronically infected H9/HIV-1IIIB cells, p24; format: cell-based
[5] = tested on: HIV-1IIIB; experiment: Anti-HIV-1 activity, syncytia (CPE) count in C8166 cells; format: cell-based; conditions: Human immunodeficiency virus 1
[6] = Cytotoxicity, MTT assay, H9/HIV-1IIIB cells; format: cell-based; conditions: human, three days, read-out: CC50 (Mean ± SD)
[7] = target: CYP2D6 (Homo sapiens, UniProt P10635); experiment: Cytochrome P450 inhibition, human liver microsomes, dextromethorphan
[8] = Acute toxicity, single intragastric dose; format: in vivo; conditions: male and female BALB/C mice
[9] = tested on: HIV-1IIIB; experiment: Anti-HIV-1 activity, MTT protection of MT-4 cells; format: cell-based; conditions: Human immunodeficiency virus 1, MT4, MT-4, MTT
[10] = Pharmacokinetics after iv and oral dosing; format: in vivo, BALB/c mice; conditions: for half-life: read-out: t1/2z (converted)
[11] = target: T1, CYP1A2 (Homo sapiens, UniProt P05177); experiment: Cytochrome P450 inhibition, human liver microsomes, phenacetin
T1 sequence (P05177 1-516): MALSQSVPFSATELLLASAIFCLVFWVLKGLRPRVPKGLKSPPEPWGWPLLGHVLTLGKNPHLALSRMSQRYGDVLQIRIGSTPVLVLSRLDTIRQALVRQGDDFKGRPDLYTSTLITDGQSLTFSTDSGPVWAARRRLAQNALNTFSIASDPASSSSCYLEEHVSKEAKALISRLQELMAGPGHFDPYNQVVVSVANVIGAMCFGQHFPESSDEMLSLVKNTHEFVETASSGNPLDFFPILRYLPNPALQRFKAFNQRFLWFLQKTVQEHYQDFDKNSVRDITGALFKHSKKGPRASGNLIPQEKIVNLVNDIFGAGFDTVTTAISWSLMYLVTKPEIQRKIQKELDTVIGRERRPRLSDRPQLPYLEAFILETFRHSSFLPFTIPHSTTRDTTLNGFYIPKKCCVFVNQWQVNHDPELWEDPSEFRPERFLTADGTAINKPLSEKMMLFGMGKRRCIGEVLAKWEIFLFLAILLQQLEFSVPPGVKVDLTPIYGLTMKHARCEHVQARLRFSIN

[12] = tested on: HIV-1Yu-2(G140S/Q148H); experiment: microbe, parasite or virus in culture; format: cell-based; conditions: Human immunodeficiency virus 1, TZM-bl
[13] = Cytotoxicity, MTT assay, C8166 cells; format: cell-based; conditions: human, three days, read-out: CC50 (Mean ± SD)
[14] = target: CYP3A4M (Homo sapiens, UniProt P08684); experiment: Cytochrome P450 inhibition, human liver microsomes, midazolam
[15] = mouse, plasma, iv 2 mg/kg, female BALB/c mice
[16] = mouse, plasma, iv 2 mg/kg, male BALB/c mice
[17] = mouse, plasma, po 30 mg/kg, female BALB/c mice
[18] = mouse, plasma, po 30 mg/kg, male BALB/c mice
[19] = mouse, plasma, po 60 mg/kg, female BALB/c mice
[20] = mouse, plasma, po 60 mg/kg, male BALB/c mice
[21] = mouse, plasma, po 120 mg/kg, female BALB/c mice
[22] = mouse, plasma, po 120 mg/kg, male BALB/c mice
[23] = po 30 mg/kg, female BALB/c mice
[24] = po 60 mg/kg, female BALB/c mice
[25] = po 120 mg/kg, female BALB/c mice

CYP3A4M, sequence (P08684 whole entry): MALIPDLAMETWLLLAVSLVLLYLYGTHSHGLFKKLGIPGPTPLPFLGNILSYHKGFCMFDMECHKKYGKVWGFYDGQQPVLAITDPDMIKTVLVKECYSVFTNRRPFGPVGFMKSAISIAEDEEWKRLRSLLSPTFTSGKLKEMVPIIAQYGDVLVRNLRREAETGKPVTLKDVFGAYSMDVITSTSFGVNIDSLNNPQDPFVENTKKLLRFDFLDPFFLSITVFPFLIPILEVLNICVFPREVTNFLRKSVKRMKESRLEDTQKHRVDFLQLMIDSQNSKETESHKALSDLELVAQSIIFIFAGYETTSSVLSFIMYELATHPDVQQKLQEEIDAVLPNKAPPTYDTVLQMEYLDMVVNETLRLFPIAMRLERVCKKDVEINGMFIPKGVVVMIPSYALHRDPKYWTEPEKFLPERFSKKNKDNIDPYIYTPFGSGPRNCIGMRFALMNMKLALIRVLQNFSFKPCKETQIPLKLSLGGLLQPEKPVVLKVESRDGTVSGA
CYP2D6, sequence (P10635 whole entry): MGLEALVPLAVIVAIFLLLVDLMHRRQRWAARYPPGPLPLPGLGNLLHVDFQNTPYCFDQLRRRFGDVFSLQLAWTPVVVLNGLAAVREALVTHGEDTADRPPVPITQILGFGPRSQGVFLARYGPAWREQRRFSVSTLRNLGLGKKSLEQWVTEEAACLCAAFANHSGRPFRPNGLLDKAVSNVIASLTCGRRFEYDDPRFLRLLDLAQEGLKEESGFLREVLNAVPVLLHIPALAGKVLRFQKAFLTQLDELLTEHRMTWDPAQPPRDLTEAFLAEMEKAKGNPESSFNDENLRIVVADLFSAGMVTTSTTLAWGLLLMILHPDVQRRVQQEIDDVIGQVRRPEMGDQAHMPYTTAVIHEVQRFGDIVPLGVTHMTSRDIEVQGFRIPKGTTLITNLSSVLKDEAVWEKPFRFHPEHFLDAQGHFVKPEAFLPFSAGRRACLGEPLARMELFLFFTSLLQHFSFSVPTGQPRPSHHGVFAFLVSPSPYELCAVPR
CYP2C9, sequence (P11712 whole entry): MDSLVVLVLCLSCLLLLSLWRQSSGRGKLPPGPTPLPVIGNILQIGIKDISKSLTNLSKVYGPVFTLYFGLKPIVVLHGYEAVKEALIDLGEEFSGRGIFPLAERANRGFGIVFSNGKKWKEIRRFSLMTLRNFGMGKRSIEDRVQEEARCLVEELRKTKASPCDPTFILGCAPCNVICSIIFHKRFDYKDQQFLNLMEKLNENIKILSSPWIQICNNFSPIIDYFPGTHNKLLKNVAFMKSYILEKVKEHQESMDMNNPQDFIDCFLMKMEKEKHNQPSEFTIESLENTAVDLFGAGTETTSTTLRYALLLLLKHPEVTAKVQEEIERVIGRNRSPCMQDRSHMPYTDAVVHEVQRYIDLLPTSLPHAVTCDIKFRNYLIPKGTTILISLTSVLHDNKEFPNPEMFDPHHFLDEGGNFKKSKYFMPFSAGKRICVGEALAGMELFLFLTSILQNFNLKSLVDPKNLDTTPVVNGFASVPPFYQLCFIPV

Cc1cc(C#N)cc(C)c1Oc1nc(NC2CCN(Cc3ccc(S(N)(=O)=O)cc3)CC2)nc2ccsc12 [K-5a2]
CC50 at 7 days [1]: 39.7 ± 6.29 µM
CC50 at 3 days [2]: 26.6 ± 2.03 µM
IC50 [3]: > 50 µM
EC50 ([4]; Human immunodeficiency virus 1, HIV-1IIIB, H9/HIV-1IIIB chronically infected, p24): > 50 µM
Inhibition of HIV-1 replication in HIV-1IIIB chronically infected H9 cells ([4]; at a concentration of 50.00 µM): could not inhibit the replication
EC50 [5]: 0.00188 ± 0.00087 µM
CC50 at 3 days [6]: 28.1 ± 5.03 µM
IC50 [7]: > 50 µM
MTD ([8]; both, mouse, in vivo, po, 5000 mg/kg, single gavage dose, read-out: Maximum tolerated dose): > 5000 mg/kg
Clinical symptoms and body weight ([8]; single gavage dose of 5000 mg/kg): no obvious clinical symptoms and no obvious abnormalities in body weight
EC50 [9]: 0.00174 ± 0.00011 µM
bioavailability ([10]; BALB/c, mouse, plasma, female mice, oral doses, read-out: Oral bioavailability): 8.5 ± 2.7%
bioavailability ([10]; BALB/c, mouse, plasma, male mice, oral doses, read-out: Oral bioavailability): 6.8 ± 1.3%
Tmax ([10]; both, mouse, plasma, single oral administration at 30, 60, or 120 mg/kg, BALB/c mice, read-out: Time to peak plasma concentration): 15 to 30 min
Cmax ([10]; female, BALB/c, mouse, plasma, iv, 2 mg/kg, iv 2 mg/kg, female BALB/c mice, read-out: Cmax): 1100 ng/mL
Cmax ([10]; female, BALB/c, mouse, plasma, po, 30 mg/kg, po 30 mg/kg, female BALB/c mice, read-out: Cmax): 416 ng/mL
Cmax ([10]; female, BALB/c, mouse, plasma, po, 60 mg/kg, po 60 mg/kg, female BALB/c mice, read-out: Cmax): 1100 ng/mL
Cmax ([10]; female, BALB/c, mouse, plasma, po, 120 mg/kg, po 120 mg/kg, female BALB/c mice, read-out: Cmax): 1940 ng/mL
Cmax ([10]; iv 2 mg/kg, female BALB/c mice, 2 mg/kg): 1098.3 ng/mL
Cmax ([10]; iv 2 mg/kg, male BALB/c mice, 2 mg/kg): 1078.7 ng/mL
Cmax ([10]; male, BALB/c, mouse, plasma, iv, 2 mg/kg, iv 2 mg/kg, male BALB/c mice, read-out: Cmax): 1080 ng/mL
Cmax ([10]; male, BALB/c, mouse, plasma, po, 30 mg/kg, po 30 mg/kg, male BALB/c mice, read-out: Cmax): 345 ng/mL
Cmax ([10]; male, BALB/c, mouse, plasma, po, 60 mg/kg, po 60 mg/kg, male BALB/c mice, read-out: Cmax): 749 ng/mL
Cmax ([10]; male, BALB/c, mouse, plasma, po, 120 mg/kg, po 120 mg/kg, male BALB/c mice, read-out: Cmax): 1680 ng/mL
AUC(0-t) [10, 15]: 461 ng·h/mL
clearance [10, 15]: 69.2 mL/min/kg
Tmax ([10]; mouse, plasma, iv 2 mg/kg, female BALB/c mice, read-out: Tmax): 1.98 min
Vd ([10]; mouse, plasma, iv 2 mg/kg, female BALB/c mice, read-out: Vd): 14.1 L/kg
half-life [10, 15]: 141 min
AUC(0-t) [10, 16]: 454 ng·h/mL
clearance [10, 16]: 70.5 mL/min/kg
Tmax ([10]; mouse, plasma, iv 2 mg/kg, male BALB/c mice, read-out: Tmax): 1.98 min
Vd ([10]; mouse, plasma, iv 2 mg/kg, male BALB/c mice, read-out: Vd): 13.3 L/kg
half-life [10, 16]: 131 min
AUC(0-t) [10, 17]: 488 ng·h/mL
bioavailability ([10]; mouse, plasma, po 30 mg/kg, female BALB/c mice, read-out: F): 7.05%
Tmax ([10]; mouse, plasma, po 30 mg/kg, female BALB/c mice, read-out: Tmax): 15 min
half-life [10, 17]: 65.4 min
AUC(0-t) [10, 18]: 482 ng·h/mL
bioavailability ([10]; mouse, plasma, po 30 mg/kg, male BALB/c mice, read-out: F): 7.08%
Tmax ([10]; mouse, plasma, po 30 mg/kg, male BALB/c mice, read-out: Tmax): 30 min
half-life [10, 18]: 62.4 min
AUC(0-t) [10, 19]: 1420 ng·h/mL
bioavailability ([10]; mouse, plasma, po 60 mg/kg, female BALB/c mice, read-out: F): 10.2%
Tmax ([10]; mouse, plasma, po 60 mg/kg, female BALB/c mice, read-out: Tmax): 15 min
half-life [10, 19]: 71.4 min
AUC(0-t) [10, 20]: 968 ng·h/mL
bioavailability ([10]; mouse, plasma, po 60 mg/kg, male BALB/c mice, read-out: F): 7.1%
Tmax ([10]; mouse, plasma, po 60 mg/kg, male BALB/c mice, read-out: Tmax): 30 min
half-life [10, 20]: 85.2 min
AUC(0-t) [10, 21]: 3580 ng·h/mL
bioavailability ([10]; mouse, plasma, po 120 mg/kg, female BALB/c mice, read-out: F): 12.9%
Tmax ([10]; mouse, plasma, po 120 mg/kg, female BALB/c mice, read-out: Tmax): 30 min
half-life [10, 21]: 49.2 min
AUC(0-t) [10, 22]: 2460 ng·h/mL
bioavailability ([10]; mouse, plasma, po 120 mg/kg, male BALB/c mice, read-out: F): 9.05%
Tmax ([10]; mouse, plasma, po 120 mg/kg, male BALB/c mice, read-out: Tmax): 30 min
half-life [10, 22]: 105 min
CL [10, 23]: 1007 mL/min/kg
Vd [10, 23]: 95.0 L/kg
CL ([10]; po 30 mg/kg, male BALB/c mice): 1016 mL/min/kg
Vd ([10]; po 30 mg/kg, male BALB/c mice): 91.4 L/kg
CL [10, 24]: 697.5 mL/min/kg
Vd [10, 24]: 71.9 L/kg
CL ([10]; po 60 mg/kg, male BALB/c mice): 1021 mL/min/kg
Vd ([10]; po 60 mg/kg, male BALB/c mice): 125.1 L/kg
CL [10, 25]: 557.2 mL/min/kg
Vd [10, 25]: 39.7 L/kg
CL ([10]; po 120 mg/kg, male BALB/c mice): 791.3 mL/min/kg
Vd ([10]; po 120 mg/kg, male BALB/c mice): 120.2 L/kg
IC50 [11]: > 50 µM
EC50 [12]: 0.00026 ± 0.00028 µM
CC50 at 3 days [13]: > 50 µM
IC50 [14]: 18.9 µM
